Source: US8916686B2, “TDF-related compounds and analogs thereof” (Thrasos Innovation, Inc., priority 2004, dated 2014)

B1: BMP-7: bone morphogenetic protein-7 (OP-1, TDF-1); mature form of recombinant human BMP-7 used as positive control (protein)
chain: STGSKQRSQNRSKTPKNQEALRMANVAENSSSDQRQACKKHELYVSFRDLGWQDWIIAPEGYAAYYCEGECAFPLNSYMNATNHAIVQTLVHFINPETVPKPCCAPTQLNAISVLYFDDSSNVILKKYRNMVVRACGCH

How the values were obtained:
[1] = system: synovial membrane-derived mesenchymal stem cells; assay: Chondrogenic differentiation, extracellular matrix deposition by alcian blue staining; assay type: cell-based
Excerpt: Influence of compounds SEQ ID NO 16, 33, 45, 217, 221 on chondrogenic differentiation of synovial membrane-derived mesenchymal stem cells leading to increased extracellular matrix deposition as determined by alcian blue staining. SEQ ID NO:16, 33, 45, 217, and 221 correspond to Compounds E, A, C, B, and D, respectively.
TDFRP compounds can be used to in the prophylaxis or treatment of diseases of the oral cavity, e.g., by affecting direct capping of bioactive molecules, or inducing the formation of reparative dentin and coronal or radicular pulp mineralization (Goldberg et al., Am J. Dent. 2003 February; 16(1):66-76). Further, TDFRP can be used in the prophylaxis or treatment of periodontal disease. […] TDFRP compounds can be used in the prophylaxis or treatment of traumatic brain injury, e.g., stroke, see, e.g., Cairns and Finkelstein, Phys Med Rehabil Clin N Am. 2003 February; 14(1 Suppl):S135-42). Intravenous administration of BMP-7 after ischemia improves motor function in stroke rats (Chang et al., Stroke. 2003 February; 34(2):558-64) and the TDFRP compounds may protect against or repair reperfusion injury. […] Thrasos compounds that bind to ALK3, a type I receptor for BMP, are therefore analyzed to examine if they induce chondrogenic differentiation leading to extra cellular matrix deposition in synovial membrane-derived mesenchymal stem cells. […]

[2] = system: rat osteosarcoma (17/2.8) cells; assay: Rat osteosarcoma (ROS) cell-based alkaline phosphatase assay; settings: 0.02-200 uM, 2 days; relative to BMP-7 standard
Procedure: BMP interactions with Type I and Type II receptors can induce alkaline phosphatase activity, a marker for osteoblast activity, in ROS cells. An assay procedure as described earlier (Maliakal, J.C., Asahina, I., Hauschka, P. V., and Sampath, T. K. (1994) Growth factors 11, 227-234) was used to determine the biological activities of TDFRP compounds. In a typical experiment, rat osteosarcoma (17/2.8) cells are plated in 96 well plates (3.0×10^4 cells/well) and incubated overnight at 37 C in 5-6% CO2 incubator. The next day, healthy and confluent cells are treated with increasing concentrations of BMP-7 standard (1-10,000 ng/ml) served as positive control or TDFRP compounds (0.02-200 uM) prepared in medium containing 1% FBS and incubated for 2 days at 37 C in 5-6% CO2 incubator. The cellular content of alkaline phosphatase activity is determined by the method of Reddi and Huggins (Reddi, A. H., and Huggins, C. B (1972) Proc. Natl. Acad. Sci. USA 69, 1601-1605). Enzyme estimations are performed in 96 well plates. Following removal of culture medium, cells are washed with pre-warmed PBS (150 ul) and incubated in 100 ul of pre-warmed 1% Triton X-100 for 30 minutes at 37 C. Plates are centrifuged for 10 minutes at full speed, and recovered samples (15 ul) are assayed for enzyme activity by adding 90 ul p-nitrophenyl phosphate (Sigma) as a substrate in 0.05 M glycine-NaOH buffer, pH 9.3 and incubating for 20 minutes at 37 C. The reaction is stopped by adding 75 ul of 0.2 N NaOH/well and absorbance at 405/490 nm is measured on a Dynatech MR 700 plate reader. Results are expressed as relative activities compared to a BMP-7 standard.

[3] = system: rat after ligation of the coronary artery; assay: LAD occlusion model of myocardial injury (ischemia/reperfusion); assay type: in vivo; settings: day 7; compound 10 mg/kg i.v., rhmBMP-7 160 μg/kg i.v.
Procedure: The efficacy of compound SEQ ID #45 in ameliorating the effects of myocardial ischemia was investigated in the rat after ligation of the coronary artery. […] unmanipulated rats, sorted into two large groups by initial body weight (>300 g pre-surgery) were evaluated. Fourteen rats underwent surgery on week, 12 rats underwent surgery on week 2 and rats were sorted into 3 treatment groups: Group 1, PBS; Group 2, positive control TDF-1; Group 3, test article SEQ ID #45 (see Table X).
Three days prior to surgery, a serum sample was collected from the tail vein of each rat (pre-bleed). On the day of surgery, each rat was administered compound intravenously 2 hr prior to surgery. Surgery was performed sequentially after intubation and ventilation with 0.5% isofluorane anesthetic. Lead II ECG was monitored throughout the surgery. A thoracotomy was performed and the main left coronary artery was occluded for 20 min using a snare technique (FIG. 16). Successful occlusion of the artery was confirmed by ST elevation in lead II ECG within the first 5 minutes of ligation, and by frequent ventricular arrhythmia after 10 minutes of ligation. The snare was released to restore blood flow. The original suture loop was left in place for subsequent re-occlusion on Day 7. After initiation of reperfusion, the chest cavity was closed with 2 layers of suture. Rats were weaned from the ventilator and observed until fully conscious and mobile. Antibiotic (QD) and analgesic (Q8D) were provided. Additional serum samples were collected 6, 24, 72 and 120 hours post occlusion. Additional compound, positive control or vehicle treatments were delivered by intravenous injection in the tail vein at 24, 72 and 120 hours post occlusion.
On Day 7, each rat was anesthetized (ketamine:xyline), the chest cavity re-opened and a terminal blood sample (1 ml) was withdrawn from the abdominal vein. Gross pathology (i.e. inflammation) was noted and graded on a 4 point inflammation scale: 0=no inflammation, 1=slight, 2=moderate, 3=severe and 4=complete pericarditis. The left coronary artery was then re-occluded using the existing stitch and a concentrated solution of Evans Blue dye in saline (20 mg/ml; 0.5 ml/rat) was injected into the heart apex to stain the non-ischemic cardiac tissue blue. The heart was then arrested by injection of a saturated solution of potassium chloride into the right ventricle. The heart was then excised, wrapped in cellophane and stored at −20° C. for 1.5 hour. The cold heart was cut into 10 cross-sectional slices (2 mm/slice) and each section was numbered and incubated separately in triphenyltetrazolium chloride (1% TTC in PBS) for 10 minutes at 37° C. prior to fixing in 4% formaldehyde. Subsequently, each slice was photographed. For each slice, the “area at risk (AR)” and the “area occupied by necrosis (AN)” were measured by morphometry. The ratio of AN to AR is a measure of the degree of damage resulting from the occlusion (FIG. 17A-FIG. 17B).

[4] = system: mouse model of nephrotoxic serum nephritis; settings: cited from earlier work
[5] = system: TGF-beta1 induced EMT in epithelial cells; settings: 100 ng/ml for 48 hours; cited from earlier work

Molecule | deposition of the extracellular matrix [1] | induction of alkaline phosphatase activity [2] | other results
CIVNSSDDFLCKKYRS [SEQ ID NO 16] | significantly increased the deposition of the extracellular matrix |  | 
CYFDDSSKVICKKYRS [SEQ ID NO 130] |  | did not induce alkaline phosphatase activity | 
CYFDDSSQVLCKKYRS [SEQ ID NO 65] |  | did not induce alkaline phosphatase activity | 
CYFNDSSQVLCKRYRS [SEQ ID NO 221] | significantly increased the deposition of the extracellular matrix | did not induce alkaline phosphatase activity | 
B1 |  |  | reduction in AN/AR ratio as compared to PBS-treated animals [3]: 7%; progression to chronic renal disease ([4]; about 300 micrograms/kg, starting after one week of NTN): sufficient to prevent progression to chronic renal disease; renal pathology ([4]; treatment from week 3 through week 6 and from week 4 through week 6): almost completely reversed renal pathology; reversal of TGF-beta1 induced EMT [5]: reverses TGF-beta1 induced EMT
